The text below walks through data of PubChem BioAssay (NCI).

Each structure is given as a SMILES string.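 Test compounds were applied to cells in 96-well plates for 48 hours at 5 doses. TGI is the concentration that stops growth completely.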

Experiment in all cases: NCI anticancer screen, dose series, 48 h
Assay [1] concerns OVCAR-8 ovarian.
The test system of assay [2] is OVCAR-4 ovarian.
Assay [3] relates to SNB-75 CNS.
The subject of assay [4] is PC-3 prostate.
Assay [5] relates to U251 CNS.
The subject of assay [6] is MOLT-4 leukemia.
Assay [7] has as its system T-47D breast.
For assay [8], the system named is UACC-257 melanoma.
For assay [9], the system named is OVCAR-5 ovarian.
For assay [10], the system named is HCT-15 colon.
The test system of assay [11] is MDA-MB-435.
Assay [12] relates to NCI-H23 lung.
The subject of assay [13] is COLO 205 colon.
For assay [14], the system named is MDA-MB-231 breast.
Assay [15] has as its system BT-549 breast.
Assay [16] deals with K-562 leukemia.
Assay [17] has as its system CCRF-CEM leukemia.
Assay [18] has as its system CAKI-1 renal.
The test system of assay [19] is MCF7 breast.

As to `Cc1cc2c(cc1-c1cc3c(cc1C)C(C(C)C)=C(O)C(=O)/C3=C\Nc1cccc3c(N)cccc13)/C(=C/Nc1cccc3c(N)cccc13)C(=O)C(O)=C2C(C)C`, the TGI in [1], in assay [2], in assay [3], in assay [4], in assay [5] and in assay [6] was over 100 µM throughout. Moreover, the TGI in assay [7], in [8], in [9], in [10], in [11] and in [12] was over 100 µM each time. Further, the TGI in [13], in assay [14], in assay [15], in [16], in assay [17] and in assay [18] was over 100 µM throughout. Besides, in [19], the TGI is over 100 µM.

In the case of `COC(=O)/C=C(\S/C(=C(/c1ccccc1)n1cc(C(=O)OC)c(C(=O)OC)n1)c1ccccc1)C(=O)OC`, the TGI was found to be 3.88 µM in assay [1]; 29 µM in assay [2]; 95.2 µM in [3]; 32.2 µM in [4]; 66.1 µM in [5]; 12.4 µM in [6]. Also, the TGI in assay [7] was determined as 14.1 µM; in [8], 23.9 µM; in assay [9], 32.7 µM; in [10] it was 29 µM; in [11], 32.9 µM; in assay [12], 38 µM. For the same molecule, the TGI came to 4.09 µM in [13]; 44.6 µM in assay [14]; 98.7 µM in assay [15]; 31.8 µM in assay [16]; 31.3 µM in [17]; 6.66 µM in [18]. For the same molecule, in [19], the TGI amounted to 22.9 µM.

Turning to `O=[N+]([O-])c1ccc2nc(/C=C(\O)c3ccccc3)c(/C=C(\O)c3ccc(Cl)cc3)nc2c1`, the TGI in assay [1] was over 100 µM; in [2], over 100 µM; in [3], 64.9 µM; in [4], over 100 µM; in assay [5], over 100 µM; in assay [6], over 100 µM. In addition, the TGI in assay [7], in assay [8], in assay [9], in assay [10], in [11] and in [12] was over 100 µM in each case. For the same molecule, the TGI in assay [13], in assay [14], in assay [15], in [16], in assay [17] and in [18] was over 100 µM each time. Also, the TGI in assay [19] is over 100 µM.

As for `c1ncc(C23C4C5C6C4C2C6C53)[nH]1` (stereo unspecified), the TGI in assay [1], in assay [2], in assay [3], in assay [4], in assay [5] and in assay [6] was over 100 µM each time. The TGI in assay [7], in assay [8], in assay [9], in [10], in assay [11] and in assay [12] was over 100 µM throughout. The TGI in assay [13], in assay [14], in assay [15], in [16], in [17] and in assay [18] was over 100 µM throughout. Also, in [19], the TGI was over 100 µM.

On to `COC(=O)[C@@H](COC(=O)/C=C/c1ccc(OC(C)=O)c(OC(C)=O)c1)NC(=O)/C=C/c1ccc(OC(C)=O)c(OC(C)=O)c1`, for which the TGI was over 100 µM in [1]; 57.8 µM in assay [2]; over 100 µM in assay [3]; over 100 µM in [4]; over 100 µM in assay [5]; over 100 µM in assay [6]. The TGI in assay [7] is 34.9 µM; in [8] it was over 100 µM; in assay [9] it was over 100 µM; in assay [10], 91.4 µM; in [11], over 100 µM; in assay [12] it was over 100 µM. Further, the TGI in assay [13] is 35.3 µM; in assay [14] it was 82.4 µM; in assay [15] it was over 100 µM; in [16] it was over 100 µM; in assay [17] it was over 100 µM; in [18], 48.1 µM. Also, in [19], the TGI is over 100 µM.

As for `CC(C)Cn1cnnc1NS(=O)(=O)c1cc(C(=O)NN)c(Cl)cc1S`, the TGI in assay [1], in assay [2], in assay [3], in assay [4], in assay [5] and in assay [6] was over 10 µM throughout. In addition, the TGI in assay [7], in assay [8], in assay [9], in assay [10], in [11] and in assay [12] was over 10 µM throughout. The TGI in assay [13], in [14], in [15], in assay [16], in assay [17] and in [18] was over 10 µM throughout. The molecule further gave a TGI in assay [19] of over 10 µM.

In the case of `COc1cc([C@@H]2c3cc4c(cc3[C@@H](N=Cc3ccc(C(=O)O[C@H]5C[C@H]6OC[C@@]6(OC(C)=O)[C@H]6[C@H](OC(=O)c7ccccc7)[C@]7(O)C[C@H](OC(=O)[C@H](OC(=O)c8ccc(C=N[C@@H]9c%10cc%11c(cc%10[C@@H](c%10cc(OC)c(O)c(OC)c%10)[C@H]%10C(=O)OC[C@@H]%109)OCO%11)cc8)[C@@H](NC(=O)c8ccccc8)c8ccccc8)C(C)=C([C@@H](OC(C)=O)C(=O)[C@]56C)C7(C)C)cc3)C3COC(=O)C32)OCO4)cc(C)c1O` (stereo partly specified), the TGI in assay [1] was over 50 µM; in assay [2], over 50 µM; in [3] it was over 50 µM; in [4] it was over 27.5 µM; in [5], over 31.6 µM; in [6], over 50 µM. The TGI in [7] was over 50 µM; in [8] it was over 50 µM; in assay [9], over 23.6 µM; in [10] it was over 50 µM; in assay [11], 9.32 µM; in assay [12], over 50 µM. Besides, the TGI in [13] was over 50 µM; in [14], over 43.4 µM; in [15], over 50 µM; in assay [16], over 50 µM; in assay [17] it was over 50 µM; in [18], over 50 µM. Besides, the TGI in assay [19] came out at 48.5 µM.

As to `O=C(Nc1ccc(Cl)cc1)C(=O)C1=C(O)c2ccccc2OC1`, the TGI in assay [1], in [2], in [3], in assay [4], in assay [5] and in [6] was over 100 µM each time. Besides, the TGI in [7], in [8], in [9], in [10], in assay [11] and in assay [12] was over 100 µM in each case. The TGI in [13], in assay [14], in assay [15], in assay [16], in [17] and in [18] was over 100 µM in each case. Besides, the TGI in [19] was over 100 µM.

In the case of `CC(C)c1cc(C(C)C)c(P2(=O)CC3C(Cl)(Cl)C3(C)C2)c(C(C)C)c1` (stereo unspecified), the TGI in assay [1] is 27.8 µM; in assay [2], 11.8 µM; in [3], 24.8 µM; in assay [4], 17.8 µM; in assay [5], 22 µM; in [6], over 23.1 µM. The TGI in [7] came to 27.7 µM; in assay [8] it was 20.9 µM; in assay [9] it was 30.5 µM; in assay [10], 25.1 µM; in assay [11], 26.8 µM; in assay [12], 24.3 µM. Moreover, the TGI in assay [13] was 25 µM; in assay [14], 24.8 µM; in assay [15], 27.7 µM; in assay [16] it was over 44.1 µM; in assay [17], 6.03 µM; in assay [18], 9.6 µM. The TGI in [19] turned out to be 19.5 µM.
